In PMC9234961 (Journal of Medicinal Chemistry, 2022):
Where two headings read alike, the source gives them in different places.

Assays:
kinases (468) [1] = target: kinases (468) (Homo sapiens, UniProt P50750); settings: CDK9; 1000 nM
kinases (468) [2] = target: kinases (468) (Homo sapiens, UniProt Q13131); settings: AMPK-alpha1 (PRKAA1); 1000 nM
kinases (468) [3] = target: kinases (468) (Homo sapiens, UniProt Q92772); settings: CDKL2; 1000 nM
kinases (468) [4] = target: kinases (468) (Homo sapiens, UniProt P37023); settings: ACVRL1; 1000 nM
kinases (468) [5] = target: kinases (468) (Homo sapiens, UniProt P36507); settings: MEK2 (MAP2K2); 1000 nM
kinases (468) [6] = target: kinases (468) (Homo sapiens, UniProt O60674); settings: JAK2(JH1domain-catalytic); 1000 nM
kinases (468) [7] = target: kinases (468) (Homo sapiens, UniProt Q8IU85); settings: CAMK1D; 1000 nM
Chain of kinases (468) (Homo sapiens, UniProt Q8IU85) (Q8IU85 whole entry): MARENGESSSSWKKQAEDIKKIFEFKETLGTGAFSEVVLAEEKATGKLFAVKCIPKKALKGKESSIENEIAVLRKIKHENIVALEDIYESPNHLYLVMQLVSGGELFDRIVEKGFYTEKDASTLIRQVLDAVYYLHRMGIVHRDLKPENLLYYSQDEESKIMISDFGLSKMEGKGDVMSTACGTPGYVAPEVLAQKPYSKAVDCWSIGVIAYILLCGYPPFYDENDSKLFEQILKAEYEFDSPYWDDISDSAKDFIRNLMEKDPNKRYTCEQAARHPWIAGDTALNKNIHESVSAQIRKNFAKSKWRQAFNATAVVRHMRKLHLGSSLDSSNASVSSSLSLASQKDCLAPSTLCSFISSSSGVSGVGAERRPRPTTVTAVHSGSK

kinases (468) [8] = target: kinases (468) (Homo sapiens, UniProt O15075); settings: DCAMKL1 (DCLK1); 1000 nM
kinases (468) [9] = target: kinases (468) (Homo sapiens, UniProt Q9BUB5); settings: MKNK1; 1000 nM
kinases (468) [10] = target: kinases (468) (Homo sapiens, UniProt Q9H422); settings: HIPK3; 1000 nM
kinases (468) [11] = target: kinases (468) (Homo sapiens, UniProt Q8N568); settings: DCAMKL2 (DCLK2); 1000 nM
kinases (468) [12] = target: kinases (468) (Homo sapiens, UniProt P48729); settings: CSNK1A1; 1000 nM
Chain of kinases (468) (Homo sapiens, UniProt P48729) (P48729 whole entry): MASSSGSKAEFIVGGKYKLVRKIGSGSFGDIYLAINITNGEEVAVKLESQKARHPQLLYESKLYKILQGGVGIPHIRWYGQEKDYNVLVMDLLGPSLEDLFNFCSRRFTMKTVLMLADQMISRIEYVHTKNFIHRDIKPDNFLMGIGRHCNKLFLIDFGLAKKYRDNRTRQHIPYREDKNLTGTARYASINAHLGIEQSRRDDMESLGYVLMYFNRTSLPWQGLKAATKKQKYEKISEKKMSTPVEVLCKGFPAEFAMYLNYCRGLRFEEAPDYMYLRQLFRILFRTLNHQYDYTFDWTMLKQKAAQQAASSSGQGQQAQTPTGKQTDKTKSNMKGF

kinases (468) [13] = target: kinases (468) (Plasmodium falciparum, UniProt P62344); settings: PFCDPK1(P.falciparum) (CDPK1); 1000 nM
kinases (468) [14] = target: kinases (468) (Homo sapiens, UniProt Q32MK0); settings: MLCK (MYLK3); 1000 nM
Chain of kinases (468) (Homo sapiens, UniProt Q32MK0) (Q32MK0 whole entry): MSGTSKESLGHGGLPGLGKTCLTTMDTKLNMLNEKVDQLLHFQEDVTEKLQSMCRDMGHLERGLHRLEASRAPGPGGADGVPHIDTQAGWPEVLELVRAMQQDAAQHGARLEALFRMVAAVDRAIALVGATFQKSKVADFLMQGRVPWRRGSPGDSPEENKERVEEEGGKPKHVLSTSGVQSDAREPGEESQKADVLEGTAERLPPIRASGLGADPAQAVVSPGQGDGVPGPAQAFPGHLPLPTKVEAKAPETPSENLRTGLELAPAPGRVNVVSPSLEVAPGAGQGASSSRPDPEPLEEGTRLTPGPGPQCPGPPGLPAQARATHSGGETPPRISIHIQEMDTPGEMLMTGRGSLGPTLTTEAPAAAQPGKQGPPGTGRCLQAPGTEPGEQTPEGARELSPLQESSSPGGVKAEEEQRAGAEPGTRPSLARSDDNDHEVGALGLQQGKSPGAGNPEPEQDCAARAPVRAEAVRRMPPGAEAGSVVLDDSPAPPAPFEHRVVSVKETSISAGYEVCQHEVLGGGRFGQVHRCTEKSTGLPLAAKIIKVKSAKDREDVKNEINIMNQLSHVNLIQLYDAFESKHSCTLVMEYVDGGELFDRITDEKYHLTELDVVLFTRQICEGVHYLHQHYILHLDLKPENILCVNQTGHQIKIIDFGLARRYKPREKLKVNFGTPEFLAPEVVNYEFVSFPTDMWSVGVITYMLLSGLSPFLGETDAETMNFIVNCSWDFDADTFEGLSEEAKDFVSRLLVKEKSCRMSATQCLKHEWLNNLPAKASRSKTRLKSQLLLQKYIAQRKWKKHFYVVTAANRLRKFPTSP

kinases (468) [15] = target: kinases (468) (Homo sapiens, UniProt P00519); settings: 1000 nM
kinases (468) [16] = target: kinases (468) (Homo sapiens, UniProt Q8TD19); settings: NEK9; 1000 nM
kinases (468) [17] = target: kinases (468) (Homo sapiens, UniProt Q04759); settings: PRKCQ; 1000 nM
kinases (468) [18] = target: kinases (468) (Homo sapiens, UniProt P06213); settings: INSR; 1000 nM
kinases (468) [19] = target: kinases (468) (Homo sapiens, UniProt Q6XUX3); settings: kinase RIPK5 (Entrez DSTYK); compound concentration 1000 nM
kinases (468) [20] = target: kinases (468) (Homo sapiens, UniProt Q13546); settings: kinase RIPK1 (Entrez RIPK1); compound concentration 1000 nM
kinases (468) [21] = target: kinases (468) (Homo sapiens, UniProt P00519, Y253F); settings: ABL1(Y253F)-phosphorylated; 1000 nM
kinases (468) [22] = target: kinases (468) (Homo sapiens, UniProt P07332); settings: FES; 1000 nM
kinases (468) [23] = target: kinases (468) (Homo sapiens, UniProt Q8NEV4); settings: MYO3A; 1000 nM
kinases (468) [24] = target: kinases (468) (Homo sapiens, UniProt Q9BVS4); settings: kinase RIOK2 (Entrez RIOK2); compound concentration 1000 nM
kinases (468) [25] = target: kinases (468) (Homo sapiens, UniProt Q13237); settings: PRKG2; 1000 nM
Chain of kinases (468) (Homo sapiens, UniProt Q13237) (Q13237 whole entry): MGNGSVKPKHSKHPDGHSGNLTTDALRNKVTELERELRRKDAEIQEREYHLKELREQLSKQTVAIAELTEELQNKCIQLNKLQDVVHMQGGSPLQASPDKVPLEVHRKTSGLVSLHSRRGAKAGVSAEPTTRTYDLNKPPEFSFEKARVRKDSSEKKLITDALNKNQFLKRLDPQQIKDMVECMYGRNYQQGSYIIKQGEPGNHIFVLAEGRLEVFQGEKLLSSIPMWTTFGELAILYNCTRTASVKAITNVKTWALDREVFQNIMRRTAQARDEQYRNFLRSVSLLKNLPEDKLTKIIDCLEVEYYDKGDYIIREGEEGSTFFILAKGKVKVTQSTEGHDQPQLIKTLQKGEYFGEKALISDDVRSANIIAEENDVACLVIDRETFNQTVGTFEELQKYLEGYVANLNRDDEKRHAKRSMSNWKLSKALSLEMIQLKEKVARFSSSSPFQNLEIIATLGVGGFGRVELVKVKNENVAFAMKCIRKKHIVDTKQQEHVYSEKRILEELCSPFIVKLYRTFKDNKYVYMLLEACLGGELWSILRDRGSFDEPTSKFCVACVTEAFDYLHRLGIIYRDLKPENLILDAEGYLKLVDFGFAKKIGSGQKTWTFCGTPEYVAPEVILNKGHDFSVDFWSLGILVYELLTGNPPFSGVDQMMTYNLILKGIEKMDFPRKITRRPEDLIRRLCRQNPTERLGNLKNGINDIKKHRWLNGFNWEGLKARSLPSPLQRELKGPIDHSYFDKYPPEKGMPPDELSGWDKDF

kinases (468) [26] = target: kinases (468) (Mycobacterium tuberculosis, UniProt P9WI81); settings: PKNB(M.tuberculosis) (pknB); 1000 nM
Chain of kinases (468) (Mycobacterium tuberculosis, UniProt P9WI81) (P9WI81 whole entry, looked up): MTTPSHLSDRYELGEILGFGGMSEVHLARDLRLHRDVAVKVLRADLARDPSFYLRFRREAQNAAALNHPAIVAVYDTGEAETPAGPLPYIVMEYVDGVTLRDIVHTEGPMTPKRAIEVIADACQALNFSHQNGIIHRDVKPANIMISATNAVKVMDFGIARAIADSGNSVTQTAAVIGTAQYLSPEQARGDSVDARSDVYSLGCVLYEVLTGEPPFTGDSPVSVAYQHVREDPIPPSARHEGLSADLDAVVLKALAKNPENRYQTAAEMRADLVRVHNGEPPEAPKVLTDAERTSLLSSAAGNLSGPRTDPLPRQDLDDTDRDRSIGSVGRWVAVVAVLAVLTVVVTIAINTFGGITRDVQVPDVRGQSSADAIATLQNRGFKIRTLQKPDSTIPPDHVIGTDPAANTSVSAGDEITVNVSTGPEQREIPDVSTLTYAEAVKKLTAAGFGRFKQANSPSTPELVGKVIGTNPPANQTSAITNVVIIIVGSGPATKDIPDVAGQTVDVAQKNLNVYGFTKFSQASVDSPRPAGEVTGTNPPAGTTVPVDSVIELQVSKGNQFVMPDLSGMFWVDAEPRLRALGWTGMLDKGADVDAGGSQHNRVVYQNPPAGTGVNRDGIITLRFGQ

kinases (468) [27] = target: kinases (468) (Homo sapiens, UniProt P42336, C420R); settings: PIK3CA(C420R); 1000 nM
kinases (468) [28] = target: kinases (468) (Homo sapiens, UniProt O00141); settings: kinase SGK (Entrez SGK1); compound concentration 1000 nM
kinases (468) [29] = target: kinases (468) (Homo sapiens, UniProt Q99683); settings: ASK1 (MAP3K5); 1000 nM
kinases (468) [30] = target: kinases (468) (Homo sapiens, UniProt Q9NSY1); settings: BIKE (BMP2K); 1000 nM
kinases (468) [31] = target: kinases (468) (Homo sapiens, UniProt P53671); settings: LIMK2; 1000 nM
kinases (468) [32] = target: kinases (468) (Homo sapiens, UniProt P00519, E255K); settings: ABL1(E255K)-phosphorylated; 1000 nM
kinases (468) [33] = target: kinases (468) (Homo sapiens, UniProt Q9HAZ1); settings: CLK4; 1000 nM
kinases (468) [34] = target: kinases (468) (Homo sapiens, UniProt P54753); settings: EPHB3; 1000 nM
Chain of kinases (468) (Homo sapiens, UniProt P54753) (P54753 34-998): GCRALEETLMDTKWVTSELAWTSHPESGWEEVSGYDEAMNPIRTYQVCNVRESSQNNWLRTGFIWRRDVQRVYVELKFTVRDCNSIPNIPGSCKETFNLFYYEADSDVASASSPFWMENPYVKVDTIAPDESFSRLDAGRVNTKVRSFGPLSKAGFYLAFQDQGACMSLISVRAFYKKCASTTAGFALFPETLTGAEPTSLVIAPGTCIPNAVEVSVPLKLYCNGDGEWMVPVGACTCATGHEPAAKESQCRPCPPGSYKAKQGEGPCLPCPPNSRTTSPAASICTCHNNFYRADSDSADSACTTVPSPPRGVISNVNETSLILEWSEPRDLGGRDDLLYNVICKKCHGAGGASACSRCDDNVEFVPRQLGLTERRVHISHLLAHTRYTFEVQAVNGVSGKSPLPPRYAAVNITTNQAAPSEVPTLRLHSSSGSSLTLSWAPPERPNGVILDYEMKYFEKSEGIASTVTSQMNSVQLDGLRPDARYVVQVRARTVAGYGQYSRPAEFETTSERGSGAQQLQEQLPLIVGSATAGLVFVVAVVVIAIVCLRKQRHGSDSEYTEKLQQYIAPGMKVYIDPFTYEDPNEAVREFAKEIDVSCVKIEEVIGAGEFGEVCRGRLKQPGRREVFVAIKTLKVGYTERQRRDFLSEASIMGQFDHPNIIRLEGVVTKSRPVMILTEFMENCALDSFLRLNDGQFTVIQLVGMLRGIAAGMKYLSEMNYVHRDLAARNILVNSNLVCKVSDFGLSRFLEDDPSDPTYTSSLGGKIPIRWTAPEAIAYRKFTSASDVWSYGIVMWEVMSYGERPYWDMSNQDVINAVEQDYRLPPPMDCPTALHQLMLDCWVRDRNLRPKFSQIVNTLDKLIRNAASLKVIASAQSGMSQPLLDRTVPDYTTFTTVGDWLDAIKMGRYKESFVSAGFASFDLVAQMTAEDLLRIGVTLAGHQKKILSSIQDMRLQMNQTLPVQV

Chain of kinases (468) (Homo sapiens, UniProt P50750) (P50750 whole entry): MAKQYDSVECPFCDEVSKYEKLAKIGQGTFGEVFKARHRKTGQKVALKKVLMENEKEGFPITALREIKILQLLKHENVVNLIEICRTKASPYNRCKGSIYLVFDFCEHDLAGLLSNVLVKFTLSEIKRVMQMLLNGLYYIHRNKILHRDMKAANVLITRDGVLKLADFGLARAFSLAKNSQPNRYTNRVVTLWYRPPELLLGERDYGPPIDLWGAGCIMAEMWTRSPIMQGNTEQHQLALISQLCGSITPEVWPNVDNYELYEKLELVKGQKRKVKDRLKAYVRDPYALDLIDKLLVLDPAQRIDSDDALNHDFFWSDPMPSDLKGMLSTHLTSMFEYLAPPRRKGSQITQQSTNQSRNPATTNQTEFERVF
Chain of kinases (468) (Homo sapiens, UniProt Q13131) (Q13131 whole entry): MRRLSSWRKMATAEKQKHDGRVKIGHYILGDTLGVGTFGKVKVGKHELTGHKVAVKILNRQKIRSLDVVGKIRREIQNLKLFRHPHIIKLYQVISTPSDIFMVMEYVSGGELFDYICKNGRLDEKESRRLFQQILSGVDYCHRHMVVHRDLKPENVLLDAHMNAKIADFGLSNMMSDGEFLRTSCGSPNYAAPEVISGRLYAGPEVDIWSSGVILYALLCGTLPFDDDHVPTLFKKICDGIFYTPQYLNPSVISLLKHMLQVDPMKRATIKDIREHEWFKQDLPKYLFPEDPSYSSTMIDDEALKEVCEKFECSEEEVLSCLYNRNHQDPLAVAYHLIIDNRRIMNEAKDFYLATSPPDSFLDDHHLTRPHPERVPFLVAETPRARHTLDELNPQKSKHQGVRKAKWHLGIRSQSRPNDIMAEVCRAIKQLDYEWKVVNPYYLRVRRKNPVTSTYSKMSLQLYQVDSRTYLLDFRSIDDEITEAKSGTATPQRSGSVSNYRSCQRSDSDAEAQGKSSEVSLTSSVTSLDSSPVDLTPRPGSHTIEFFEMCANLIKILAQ

C[C@H]1C[C@@H](O)CN(c2ncc(Cl)c(Nc3ccc4c(c3)c3c(c(=O)n4C)OCC(F)(F)[C@H](C4CC4)N3)n2)C1 [CCT373566_9A]
Percent Control (kinases (468) [1]): 96% | Percent Control (kinases (468) [2]): 100% | Percent Control (kinases (468) [3]): 100% | Percent Control (kinases (468) [4]): 96% | Percent Control (kinases (468) [5]): 79% | Percent Control (kinases (468) [6]): 97% | Percent Control (kinases (468) [7]): 92% | Percent Control (kinases (468) [8]): 100% | Percent Control (kinases (468) [9]): 91% | Percent Control (kinases (468) [10]): 100% | Percent Control (kinases (468) [11]): 100% | Percent Control (kinases (468) [12]): 100% | Percent Control (kinases (468) [13]): 69% | Percent Control (kinases (468) [14]): 100% | Percent Control (kinases (468) [15]; ABL1-nonphosphorylated): 92% | Percent Control (kinases (468) [15]; ABL1-phosphorylated): 99% | Percent Control (kinases (468) [16]): 95% | Percent Control (kinases (468) [17]): 100% | Percent Control (kinases (468) [18]): 98% | Percent Control (kinases (468) [19]): 90% | Percent Control (kinases (468) [20]): 100% | Percent Control (kinases (468) [21]): 91% | Percent Control (kinases (468) [22]): 100% | Percent Control (kinases (468) [23]): 100% | Percent Control (kinases (468) [24]): 100% | Percent Control (kinases (468) [25]): 100% | Percent Control (kinases (468) [26]): 100% | Percent Control (kinases (468) [27]): 93% | Percent Control (kinases (468) [28]): 98% | Percent Control (kinases (468) [29]): 100% | Percent Control (kinases (468) [30]): 100% | Percent Control (kinases (468) [31]): 100% | Percent Control (kinases (468) [32]): 99% | Percent Control (kinases (468) [33]): 91% | Percent Control (kinases (468) [34]): 100%
